Experiment [1] deals with Delta-5-Desaturase (D5D) (Mus musculus (Mouse), UniProt Q920L1). Put plainly: In vivo measurement of Delta-5-Desaturase inhibitory activity (plasma AA/DGLA ratio in DIO mice). The conditions noted are these: single oral dose 30 mg/kg, read-out: Average % D5D Inhibition expressed as Plasma Endogenous AA/DGLA Ratio. As for the experimental part:
In vivo Measurement of Delta-5-Desaturase Inhibitory Activity
Diet-induced obese (DIO; Jackson Laboratories strain #3800050) mice were used to screen for pharmacodynamic (PD) activity of test compounds. Generally, 14 to 24 week old DIO mice, were administered test compounds formulated in the vehicle of 2% hydroxypropyl methylcellulose (HPMC) and 1% Tween80. Animals were dosed on body weight by oral gavage with a single dose (30 mg/kg) for PD studies. Necropsy included plasma collection for PUFA analysis. 10 μl of plasma or standards diluted in surrogate matrix (65 g/l bovine serum albumin in Dulbecco's phosphate-buffered saline) were mixed with 10 μl of an internal standard (100 μM alpha-linolenic acid-d14 (ALA-d14, Cayman Chemical)) in a 96 well plate. 100 μl of 2N NAOH was added to the mixture for subsequent saponification at 65° C. for 1 hour. The mixture was then acidified with 50 μl of formic acid followed by two consecutive hexane extractions. Hexane (500 μl) was added and the mixture thoroughly mixed by vortexing, followed by centrifugation at 4,000 rpm for 15 min. The hexane phase was transferred to a new 1 ml 96 well plate and the remaining aqueous layer was extracted with hexane. The organic extracts were combined and the solvent was removed by placing the plate under nitrogen gas at 55° C. 250 μl of 90% methanol was added to the plate followed by vortexing for 2 minutes. 200 μl of the samples were transferred to a new 96 well polypropylene plate. The samples were analyzed on a LC-MS/MS for the following PUFAs: arachidonic acid (AA), dihomo-gamma-linolenic acid (DGLA), with ALA-d14 as the internal standard. Description of the LC-MS/MS method: 5 μl of sample was injected onto a Poroshell 120 EC-C18 3.0×50 mm, 1.9 μm id column. […] The PUFA peak areas were quantified by using the SCIEX Analyst software. […] The relative decrease of the AA/DGLA ratio of the test compound administered group relative to the vehicle administered group was calculated and used as an index for the degree of D5D inhibition.
The results presented in Table 27 were obtained using certain compounds described herein in the in vivo protocol described above.

Experiment [2] concerns the target Delta-5-Desaturase (D5D) (Homo sapiens (Human), UniProt O60427). In words: In vitro measurement of Delta-5-Desaturase inhibitory activity using DGLA-CoA and Arachidonyl-CoA mass spectrometric assays. The experiment is classed as biochemical. The conditions noted are these: membrane preparations of D5D-overexpressing HEK293 6E cells; averaged over at least two independent runs. The procedure, abridged: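 DGLA-CoA and arachidonyl-CoA were read by RapidFire SPE triple-quad MS (negative mode, MRM) after a 1 h ambient-temperature reaction quenched with acetonitrile. Enzyme was D5D-overexpressing HEK293 6E membranes at 10 μg/mL final; substrate solution held 0.01 mM DGLA plus NADH, ATP and CoA. Inhibition was referenced to DMSO and no-enzyme wells; 4PL IC50.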

Molecules are shown by their SMILES.

One may read the IC50 as the concentration at which inhibition is half-maximal. High values mean weaker potency, low ones greater potency.

Chain of Delta-5-Desaturase (D5D) (Homo sapiens (Human), UniProt O60427) (O60427 whole entry, species assumed): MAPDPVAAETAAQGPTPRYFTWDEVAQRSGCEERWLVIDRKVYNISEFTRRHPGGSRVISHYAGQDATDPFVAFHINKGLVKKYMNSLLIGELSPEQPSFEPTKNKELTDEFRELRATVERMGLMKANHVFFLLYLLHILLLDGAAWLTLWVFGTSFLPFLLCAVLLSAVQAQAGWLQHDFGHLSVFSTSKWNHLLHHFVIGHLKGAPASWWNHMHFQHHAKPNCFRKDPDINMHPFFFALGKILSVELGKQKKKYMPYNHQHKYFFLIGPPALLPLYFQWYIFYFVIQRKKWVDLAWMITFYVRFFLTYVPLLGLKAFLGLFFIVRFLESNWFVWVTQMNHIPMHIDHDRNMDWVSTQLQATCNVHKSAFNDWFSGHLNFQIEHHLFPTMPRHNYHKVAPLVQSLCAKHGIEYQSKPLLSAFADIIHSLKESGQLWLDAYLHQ
Chain of Delta-5-Desaturase (D5D) (Mus musculus (Mouse), UniProt Q920L1) (Q920L1 whole entry): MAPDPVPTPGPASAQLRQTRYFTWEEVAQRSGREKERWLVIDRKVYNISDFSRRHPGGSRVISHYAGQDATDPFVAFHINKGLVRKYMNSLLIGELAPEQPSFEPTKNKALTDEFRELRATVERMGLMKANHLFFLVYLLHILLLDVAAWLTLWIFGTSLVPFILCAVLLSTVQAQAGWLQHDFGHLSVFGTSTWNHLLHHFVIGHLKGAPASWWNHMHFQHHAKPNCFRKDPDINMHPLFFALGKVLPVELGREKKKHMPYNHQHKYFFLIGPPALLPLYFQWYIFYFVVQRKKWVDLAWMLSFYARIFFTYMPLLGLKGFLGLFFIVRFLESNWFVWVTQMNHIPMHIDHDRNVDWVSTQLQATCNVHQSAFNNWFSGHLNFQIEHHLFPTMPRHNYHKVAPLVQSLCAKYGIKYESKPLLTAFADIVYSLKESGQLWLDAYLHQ

In the case of `[2H]C([2H])([2H])Oc1ccn2c(=O)c(-c3cnn(CC(F)(F)C(F)(F)F)c3)c(C(F)(F)F)nc2c1` [Example 1-33, 8-(methyloxy-d3)-3-(1-(2,2,3,3,3-pentafluoropropyl)-1H-pyrazol-4-yl)-2-(trifluoromethyl)-4H-pyrido[1,2-a]pyrimidin-4-one], the inhibition in vivo at 30 mg/kg on Delta-5-Desaturase (D5D) [1] came out at 84%. Further, the IC50 against Delta-5-Desaturase (D5D) [2] came out at 17.3 nM.

Take `O=c1c(-c2ccc(OCC(F)(F)F)cc2)c(C(F)(F)F)nc2ccccn12` [Example 1-42, 3-(4-(2,2,2-trifluoroethoxy)phenyl)-2-(trifluoromethyl)-4H-pyrido[1,2-a]pyrimidin-4-one]: at Delta-5-Desaturase (D5D) [1], the inhibition in vivo at 30 mg/kg was 64%. For the same compound, on Delta-5-Desaturase (D5D) [2], the IC50 amounted to 10.4 nM.

In the case of `COc1ccn2c(=O)c(-c3cnn(CCC(F)(F)F)c3)c(C(F)(F)F)nc2c1` [Example 1-69, 8-methoxy-2-(trifluoromethyl)-3-[1-(3,3,3-trifluoropropyl)pyrazol-4-yl]pyrido[1,2-a]pyrimidin-4-one], the inhibition in vivo at 30 mg/kg at Delta-5-Desaturase (D5D) [1] is 71%. This compound also yielded an IC50 against Delta-5-Desaturase (D5D) [2] of 15.2 nM.

On to `COc1ccn2c(=O)c(-c3ccc(O[C@@H](C)C#N)cc3)c(C(F)(F)F)nc2c1` [Example 8-9, (2S)-2-(4-(8-methoxy-4-oxo-2-(trifluoromethyl)-4H-pyrido[1,2-a]pyrimidin-3-yl)phenoxy)propanenitrile], for which the inhibition in vivo at 30 mg/kg at Delta-5-Desaturase (D5D) [1] was found to be 79%. In addition, the IC50 against Delta-5-Desaturase (D5D) [2] stood at 11.6 nM.

On to `COc1ccn2c(=O)c(-c3cnn(CC(C)(F)F)c3)c(C(F)(F)F)nc2c1` [Example 1-39, 3-(1-(2,2-difluoropropyl)-1H-pyrazol-4-yl)-8-methoxy-2-(trifluoromethyl)-4H-pyrido[1,2-a]pyrimidin-4-one], for which the inhibition in vivo at 30 mg/kg at Delta-5-Desaturase (D5D) [1] came to 62%. Inhibition against Delta-5-Desaturase (D5D) [2] was half-maximal at 42.2 nM (IC50).

With `COc1ccn2c(=O)c(-c3ccc(OCC(F)(F)F)cc3C)c(C(F)(F)F)nc2c1` [Example 4-3, 8-methoxy-3-(2-methyl-4-(2,2,2-trifluoroethoxy)phenyl)-2-(trifluoromethyl)-4H-pyrido[1,2-a]pyrimidin-4-one], the inhibition in vivo at 30 mg/kg on Delta-5-Desaturase (D5D) [1] was 60%. Half-maximal inhibition against Delta-5-Desaturase (D5D) [2] (IC50) required 22 nM.

For `O=c1c(-c2ccc(OCC(F)(F)F)cc2)c(C(F)(F)F)nc2cc(CO)ccn12` [Example 13-3, 8-(hydroxymethyl)-3-(4-(2,2,2-trifluoroethoxy)phenyl)-2-(trifluoromethyl)-4H-pyrido[1,2-a]pyrimidin-4-one], the inhibition in vivo at 30 mg/kg on Delta-5-Desaturase (D5D) [1] amounted to 77%. For the same compound, 5.6 nM corresponded to half-maximal inhibition at Delta-5-Desaturase (D5D) [2] (IC50).

On to `COc1ccn2c(=O)c(-c3ccc(OCC(F)F)cc3)c(C(F)(F)F)nc2c1` [Example 1-10, 3-(4-(2,2-difluoroethoxy)phenyl)-8-methoxy-2-(trifluoromethyl)-4H-pyrido[1,2-a]pyrimidin-4-one], for which the inhibition in vivo at 30 mg/kg on Delta-5-Desaturase (D5D) [1] came to 75%. At Delta-5-Desaturase (D5D) [2], this compound displayed an IC50 of 7.9 nM.

Regarding `COc1ccn2c(=O)c(-c3ccc(OCC(F)(F)F)nc3)c(C(F)(F)F)nc2c1` [Example 7-4], the inhibition in vivo at 30 mg/kg at Delta-5-Desaturase (D5D) [1] is 60%. The compound further had a 50% inhibitory concentration (IC50) on Delta-5-Desaturase (D5D) [2] of 27 nM.

With `COc1ccn2c(=O)c(-c3ccc(OCC(F)(F)F)c(F)c3)c(C(F)(F)F)nc2n1` [Example 1-73, 3-(3-fluoro-4-(2,2,2-trifluoroethoxy)phenyl)-8-methoxy-2-(trifluoromethyl)-4H-pyrimido[1,2-a]pyrimidin-4-one], on Delta-5-Desaturase (D5D) [1], the inhibition in vivo at 30 mg/kg is 72%. The same compound had an IC50 against Delta-5-Desaturase (D5D) [2] of 22 nM.

For `CN(C)c1ccn2c(=O)c(-c3cnn(CC(F)(F)C(F)(F)F)c3)c(C(F)(F)F)nc2c1` [Example 1-22, 8-(dimethylamino)-3-(1-(2,2,3,3,3-pentafluoropropyl)-1H-pyrazol-4-yl)-2-(trifluoromethyl)-4H-pyrido[1,2-a]pyrimidin-4-one], the inhibition in vivo at 30 mg/kg at Delta-5-Desaturase (D5D) [1] is 59%. This compound also gave a concentration for half-maximal inhibition (IC50) against Delta-5-Desaturase (D5D) [2] of 121 nM.

For `COc1ccn2c(=O)c(-c3ccc(OCC(F)(F)F)cc3)c(C(F)(F)F)nc2n1` [Example 1-50, 8-methoxy-3-(4-(2,2,2-trifluoroethoxy)phenyl)-2-(trifluoromethyl)-4H-pyrimido[1,2-a]pyrimidin-4-one], the inhibition in vivo at 30 mg/kg at Delta-5-Desaturase (D5D) [1] turned out to be 73%. In addition, 16.8 nM corresponded to half-maximal inhibition at Delta-5-Desaturase (D5D) [2] (IC50).

In the case of `Nc1ccn2c(=O)c(-c3ccc(OCC(F)(F)F)cc3)c(C(F)(F)F)nc2n1` [Example 14-2, 8-amino-3-(4-(2,2,2-trifluoroethoxy)phenyl)-2-(trifluoromethyl)-4H-pyrimido[1,2-a]pyrimidin-4-one], at Delta-5-Desaturase (D5D) [1], the inhibition in vivo at 30 mg/kg was found to be 73%. The compound further returned an IC50 against Delta-5-Desaturase (D5D) [2] of 35.7 nM.

For the compound `O=c1c(-c2cnn(CC(F)(F)C(F)(F)F)c2)c(C(F)(F)F)nc2cc(OCF)ccn12` [Example 45, 8-(Fluoromethoxy)-3-[1-(2,2,3,3,3-pentafluoropropyl)-1H-pyrazol-4-yl]-2-(trifluoromethyl)-4H-pyrido[1,2-a]pyrimidin-4-one], the inhibition in vivo at 30 mg/kg at Delta-5-Desaturase (D5D) [1] was 62%. For the same compound, half-maximal inhibition at Delta-5-Desaturase (D5D) [2] (IC50) required 10.1 nM.

With `O=c1ccn2c(=O)c(-c3ccc(OCC(F)(F)F)cc3)c(C(F)(F)F)[nH]c2c1` [Example 10-1, 3-(4-(2,2,2-Trifluoroethoxy)phenyl)-2-(trifluoromethyl)-4H-pyrido[1,2-a]pyrimidine-4,8(1H)-dione], the inhibition in vivo at 30 mg/kg on Delta-5-Desaturase (D5D) [1] stood at 74%. This compound also gave an IC50 against Delta-5-Desaturase (D5D) [2] of 43.8 nM.

Turning to `COc1ccn2c(=O)c(-c3ccc(OC(C)(C)C#N)cc3)c(C(F)(F)F)nc2c1` [Example 24, 2-(4-(8-Methoxy-4-oxo-2-(trifluoromethyl)-4H-pyrido[1,2-a]pyrimidin-3-yl)phenoxy)-2-methylpropanenitrile], the inhibition in vivo at 30 mg/kg on Delta-5-Desaturase (D5D) [1] amounted to 70%. For the same compound, the IC50 against Delta-5-Desaturase (D5D) [2] amounted to 28.9 nM.

Take `[2H]C([2H])([2H])Oc1ccn2c(=O)c(-c3cnn(CC(F)(F)C(F)(F)F)c3)c(C(F)(F)F)nc2n1` [Example 3-2, 8-(methyloxy-d3)-3-(1-(2,2,3,3,3-pentafluoropropyl)-1H-pyrazol-4-yl)-2-(trifluoromethyl)-4H-pyrimido[1,2-a]pyrimidin-4-one]: the inhibition in vivo at 30 mg/kg on Delta-5-Desaturase (D5D) [1] was found to be 67%. The same compound registered an IC50 at Delta-5-Desaturase (D5D) [2] of 34.2 nM.

For `COc1ccn2c(=O)c(-c3cnn(CCCC(F)(F)F)c3)c(C(F)(F)F)nc2c1` [Example 1-75, 8-methoxy-3-(1-(4,4,4-trifluorobutyl)-1H-pyrazol-4-yl)-2-(trifluoromethyl)-4H-pyrido[1,2-a]pyrimidin-4-one], the inhibition in vivo at 30 mg/kg on Delta-5-Desaturase (D5D) [1] amounted to 77%. In addition, it took 29.6 nM to reach half-maximal inhibition against Delta-5-Desaturase (D5D) [2] (IC50).

For `CNc1ccn2c(=O)c(-c3cnn(CC(F)(F)C(F)(F)F)c3)c(C(F)(F)F)nc2c1` [Example 1-23, 8-(methylamino)-3-(1-(2,2,3,3,3-pentafluoropropyl)-1H-pyrazol-4-yl)-2-(trifluoromethyl)-4H-pyrido[1,2-a]pyrimidin-4-one], the inhibition in vivo at 30 mg/kg on Delta-5-Desaturase (D5D) [1] was 57%. The same compound showed an IC50 on Delta-5-Desaturase (D5D) [2] of 19.9 nM.

Consider `COc1ccn2c(=O)c(-c3ccc(OCC(F)(F)F)c(F)c3)c(C(F)(F)F)nc2c1` [Example 1-48, 3-(3-fluoro-4-(2,2,2-trifluoroethoxy)phenyl)-8-methoxy-(trifluoromethyl)-4H-pyrido[1,2-a]pyrimidin-4-one], for which the inhibition in vivo at 30 mg/kg at Delta-5-Desaturase (D5D) [1] is 66%. Also, the IC50 on Delta-5-Desaturase (D5D) [2] was found to be 5.1 nM.

On to `Nc1ccn2c(=O)c(-c3ccc(OCC(F)(F)F)cc3)c(C(F)(F)F)nc2c1` [Example 6-2, 8-amino-3-(4-(2,2,2-trifluoroeth-oxy)phenyl)-2-(trifluoromethyl)-4H-pyrido[1,2-a]pyrimidin-4-one], for which the inhibition in vivo at 30 mg/kg on Delta-5-Desaturase (D5D) [1] was 66%.

Regarding `COc1ccn2c(=O)c(-c3ccc(OC(F)(F)F)cc3F)c(C(F)(F)F)nc2c1` [Example 1-9, 3-(2-fluoro-4-(trifluoromethoxy)phenyl)-8-methoxy-2-(trifluoromethyl)-4H-pyrido[1,2-a]pyrimidin-4-one], the inhibition in vivo at 30 mg/kg at Delta-5-Desaturase (D5D) [1] amounted to 35%.

Take `COc1ccn2c(=O)c(-c3cn(CC(F)(F)C(F)(F)F)nn3)c(C(F)(F)F)nc2c1` [Example 53, 8-Methoxy-3-[1-(2,2,3,3,3-pentafluoropropyl)-1H-1,2,3-triazol-4-yl]-2-(trifluoromethyl)-4H-pyrido[1,2-a]pyrimidin-4-one]: the midpoint of inhibition on Delta-5-Desaturase (D5D) [2], the IC50, lay at 44.7 nM.

`O=c1c(-c2cnn(CC(F)(F)C(F)(F)F)c2)c(C(F)(F)F)nc2cc(CF)ccn12` [Example 13-2, 8-(fluoromethyl)-3-(1-(2,2,3,3,3-pentafluoropropyl)-1H-pyrazol-4-yl)-2-(trifluoromethyl)-4H-pyrido[1,2-a]pyrimidin-4-one] registered an IC50 against Delta-5-Desaturase (D5D) [2] of 20.5 nM.
